Biological target: T1, cytosolic phosphoenolpyruvate carboxykinase (PCK1) (Rattus norvegicus, UniProt P07379)
T1 sequence (P07379 1-622): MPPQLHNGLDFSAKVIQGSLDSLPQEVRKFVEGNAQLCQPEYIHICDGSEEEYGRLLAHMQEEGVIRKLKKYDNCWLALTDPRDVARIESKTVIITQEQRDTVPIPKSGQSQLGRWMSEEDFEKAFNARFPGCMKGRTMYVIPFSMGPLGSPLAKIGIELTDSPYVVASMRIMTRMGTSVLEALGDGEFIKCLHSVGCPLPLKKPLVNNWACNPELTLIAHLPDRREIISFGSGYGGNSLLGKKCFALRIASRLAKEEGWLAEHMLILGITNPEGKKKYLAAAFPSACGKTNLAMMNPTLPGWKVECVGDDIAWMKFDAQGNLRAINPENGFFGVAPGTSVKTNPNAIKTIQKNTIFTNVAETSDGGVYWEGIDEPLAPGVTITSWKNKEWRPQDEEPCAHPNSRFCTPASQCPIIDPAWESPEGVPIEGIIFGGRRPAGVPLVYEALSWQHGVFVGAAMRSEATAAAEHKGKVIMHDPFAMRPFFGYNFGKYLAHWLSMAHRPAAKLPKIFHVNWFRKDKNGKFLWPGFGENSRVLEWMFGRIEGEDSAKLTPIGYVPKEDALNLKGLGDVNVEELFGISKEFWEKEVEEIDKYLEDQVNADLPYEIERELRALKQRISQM
Experiment: STD NMR and DEEP-STD NMR
Format: binding

Structure (SMILES): CC(C)(COP(=O)(O)OP(=O)(O)OC[C@H]1O[C@@H](n2cnc3c(N)ncnc32)[C@H](O)[C@@H]1OP(=O)(O)O)[C@@H](O)C(=O)NCCC(=O)NCCS [coenzyme A]
- STD NMR and DEEP-STD NMR: STD NMR experiments showed clear STD signals for both, acetyl-CoA and CoA (see Fig. S4), confirming that they bind to PCK1

From paper PMC7948413 (The Journal of Biological Chemistry, 2021)
